Measurements reported in patent US8674136B2, “Aromatic butan-2-ol compounds and preparation and uses thereof” (Institute of Pharmacology and Toxicology Academy of …, priority 2010, dated 2014).
Converted amounts (≈) assume the structure as drawn.

Columns and labels:
[1] = tested on: clinical drug-resistant strain 040 of mycobacterium tuberculosis; assay: microbe, parasite or virus in culture; assay type: cell-based; conditions: read-out: MIC, M.tb stains (drug-resistant strains) 40
[2] = tested on: clinical drug-resistant strain 004 of mycobacterium tuberculosis; assay: microbe, parasite or virus in culture; assay type: cell-based; conditions: read-out: MIC, M.tb stains (drug-resistant strains) 004

COc1cc2ccc(Br)cc2cc1C(c1cccc(Cl)c1)C(O)(CCN(C)C)c1cccc2ccccc12 (stereo not shown) [Compound 35, 1-(3-chlorophenyl)-2-(1-naphthyl)-1-[2-(7-bromo-3-methoxy)naphthyl]-4-(N,N-dimethylamino)-butan-2-ol]
MIC [1]: 0.125 µg/mL (≈ 0.212 µM)
MIC [2]: 0.5 µg/mL (≈ 0.849 µM)

COc1cc2ccc(Br)cc2cc1C(c1cccc(C)c1)C(O)(CCN(C)C)c1cccc2ccccc12 (stereo not shown) [Compound 37, 1-(3-methylphenyl)-2-(1-naphthyl)-1-[2-(7-bromo-3-methoxy)naphthyl]-4-(N,N-dimethylamino)-butan-2-ol]
MIC [1]: 0.125 µg/mL (≈ 0.22 µM)
MIC [2]: 0.5 µg/mL (≈ 0.879 µM)
